Reference: patent US11597724B2, “Herbicidally active 3-phenylisoxazoline-5-carboxamides of tetrahydro and dihydrofuran carboxylic acids and esters” (Bayer Aktiengesellschaft, priority 2017, dated 2023)

Experiments:
Assay type in all cases: in vivo
Setaria viridis [1] = assay: Pre-emergence herbicidal activity against SETVI; details: dosage 80 g/ha; for pest or weed control at 80 g/ha: Setaria viridis, 504 h
Text: (§1) 1. Pre-Emergence Herbicidal Action and Crop Plant Compatibility Seeds of monocotyledonous and dicotyledonous weed plants and crop plants are placed in plastic or wood fiber pots and covered with soil. The compounds of the invention, formulated in the form of wettable powders (WP) or as emulsion concentrates (EC), are then applied onto the surface of the covering soil as aqueous suspension or emulsion with addition of 0.5% additive at a water application rate of 600 l/ha (converted). After the treatment, the pots are placed in a greenhouse and kept under good growth conditions for the trial plants. After about 3 weeks, the effect of the preparations is scored visually in comparison with untreated controls as percentages. For example, 100% activity=the plants have died, 0% activity=like control plants. POLCO: Polygonum convolvulus SETVI: Setaria viridis

Stellaria media [2] = assay: Pre-emergence herbicidal activity against STEME; details: dosage 80 g/ha; for pest or weed control at 80 g/ha: Stellaria media, 504 h
Text: as §1, with “STEME: Stellaria media VERPE: Veronica persica” for “POLCO: Polygonum convolvulus SETVI: Setaria viridis”

Alopecurus myosuroides = assay: Post-emergence herbicidal activity against ALOMY; details: dosage 320 g/ha, rated about 3 weeks after treatment; for pest or weed control at 320 g/ha: Alopecurus myosuroides, 504 h
Summary of the method: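 Greenhouse-grown plants treated at one-leaf stage, 2 to 3 weeks after sowing, with WP or EC formulations sprayed as aqueous suspension/emulsion plus 0.5% additive at 600 l/ha. Activity rated visually about 3 weeks later versus untreated controls (100% = plants dead, 0% = like control).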

Setaria viridis [3] = assay: Post-emergence herbicidal activity against SETVI; details: dosage 320 g/ha, rated about 3 weeks after treatment; for pest or weed control at 320 g/ha: Setaria viridis, 504 h
Summary of the method: (§2)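 Greenhouse weeds in sandy loam were sprayed at the one-leaf stage, 2–3 weeks after sowing, with WP or EC formulations plus 0.5% additive at 600 l/ha water. About 3 weeks later, damage was rated visually against untreated controls, where 100% means plants dead and 0% means like control.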

Pharbitis purpurea = assay: Post-emergence herbicidal activity against PHBPU; details: dosage 320 g/ha, rated about 3 weeks after treatment; for pest or weed control at 320 g/ha: Ipomoea purpurea, 504 h
Summary of the method: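 Greenhouse-grown plants sprayed post-emergence at the one-leaf stage, 2 to 3 weeks after sowing, with WP or EC formulations plus 0.5% additive at 600 l/ha water. Activity rated visually after about 3 weeks versus untreated controls (100% = plants dead, 0% = like control).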

Polygonum convolvulus = assay: Post-emergence herbicidal activity against POLCO; details: dosage 320 g/ha, rated about 3 weeks after treatment; for pest or weed control at 320 g/ha: Fallopia convolvulus, 504 h
Summary of the method: as §2

Stellaria media [4] = assay: Post-emergence herbicidal activity against STEME; details: dosage 320 g/ha, rated about 3 weeks after treatment; for pest or weed control at 320 g/ha: Stellaria media, 504 h
Summary of the method: (§3)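 Greenhouse plants treated at one-leaf stage, 2–3 weeks after sowing, by spraying WP or EC formulations with 0.5% additive at 600 l/ha water. Visual rating about 3 weeks later versus untreated controls (100% = plants dead, 0% = like controls).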

Veronica persica = assay: Post-emergence herbicidal activity against VERPE; details: dosage 320 g/ha; for pest or weed control at 320 g/ha: Veronica persica, 504 h
Summary of the method: as §3

Hordeum murinum = assay: Post-emergence herbicidal activity against HORMU; details: dosage 320 g/ha; for pest or weed control at 320 g/ha: Hordeum murinum, 504 h
Summary of the method: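 Greenhouse pot plants sprayed post-emergence at one-leaf stage (2-3 weeks after sowing) with WP or EC formulations, 0.5% additive, 600 l/ha water. Visual rating about 3 weeks later versus untreated controls: 100% = plants dead, 0% = like control.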

CC1(C(=O)NC2COC(C(=O)O)C2)CC(c2cc(F)cc(F)c2)=NO1 (mixture of isomers) [I-41]
Pre-emergence herbicidal activity against SETVI in % (Setaria viridis [1]): 100%
Pre-emergence herbicidal activity against STEME in % (Stellaria media [2]): 100%
Post-emergence herbicidal activity against ALOMY in % (Alopecurus myosuroides): 100%
Post-emergence herbicidal activity against SETVI in % (Setaria viridis [3]): 90%
Post-emergence herbicidal activity against PHBPU in % (Pharbitis purpurea): 90%
Post-emergence herbicidal activity against POLCO in % (Polygonum convolvulus): 90%
Post-emergence herbicidal activity against STEME in % (Stellaria media [4]): 90%
Post-emergence herbicidal activity against VERPE in % (Veronica persica): 80%
Post-emergence herbicidal activity against HORMU in % (Hordeum murinum): 100%

C=C[C@]1(C(=O)N[C@H]2CO[C@@H](C(=O)OC(C)(C)C)C2)CC(c2cc(F)cc(F)c2)=NO1 (mixture of isomers) [I-38, tert-butyl cis-4-[[(5S)-3-(3,5-difluorophenyl)-5-vinyl-4H-isoxazole-5-carbonyl]amino]tetrahydrofuran-2-carboxylate]
pest or weed control at 80 g/ha (Setaria viridis [1]): 100%
pest or weed control at 80 g/ha (Stellaria media [2]): 100%
pest or weed control at 320 g/ha (Alopecurus myosuroides): 90%
pest or weed control at 320 g/ha (Setaria viridis [3]): 100%
pest or weed control at 320 g/ha (Pharbitis purpurea): 90%
pest or weed control at 320 g/ha (Stellaria media [4]): 90%
pest or weed control at 320 g/ha (Veronica persica): 80%
pest or weed control at 320 g/ha (Hordeum murinum): 90%

C=C[C@]1(C(=O)N[C@H]2CO[C@@H](C(=O)OC)C2)CC(c2cc(F)cc(F)c2)=NO1 (mixture of isomers) [I-10, methyl cis-4-[[(5S)-3-(3,5-difluorophenyl)-5-vinyl-4H-isoxazole-5-carbonyl]amino]tetrahydrofuran-2-carboxylate]
pest or weed control at 80 g/ha (Setaria viridis [1]): 100%
pest or weed control at 80 g/ha (Stellaria media [2]): 100%
pest or weed control at 320 g/ha (Alopecurus myosuroides): 100%
pest or weed control at 320 g/ha (Setaria viridis [3]): 90%
pest or weed control at 320 g/ha (Pharbitis purpurea): 90%
pest or weed control at 320 g/ha (Polygonum convolvulus): 80%
pest or weed control at 320 g/ha (Stellaria media [4]): 90%
pest or weed control at 320 g/ha (Veronica persica): 80%
pest or weed control at 320 g/ha (Hordeum murinum): 100%

C=C[C@]1(C(=O)N[C@H]2CO[C@@H](C(=O)OC(C)C)C2)CC(c2cc(F)cc(F)c2)=NO1 (mixture of isomers) [I-36, isopropyl cis-4-[[(5S)-3-(3,5-difluorophenyl)-5-vinyl-4H-isoxazole-5-carbonyl]amino]tetrahydrofuran-2-carboxylate]
pest or weed control at 80 g/ha (Setaria viridis [1]): 100%
pest or weed control at 80 g/ha (Stellaria media [2]): 100%
pest or weed control at 320 g/ha (Alopecurus myosuroides): 90%
pest or weed control at 320 g/ha (Setaria viridis [3]): 80%
pest or weed control at 320 g/ha (Pharbitis purpurea): 80%
pest or weed control at 320 g/ha (Polygonum convolvulus): 80%
pest or weed control at 320 g/ha (Stellaria media [4]): 90%
pest or weed control at 320 g/ha (Veronica persica): 90%
pest or weed control at 320 g/ha (Hordeum murinum): 90%

CCOC(=O)C1CC(NC(=O)C2(C)CC(c3cc(F)cc(F)c3)=NO2)CO1 (mixture of isomers) [I-43]
Pre-emergence herbicidal activity against SETVI in % (Setaria viridis [1]): 100%
Pre-emergence herbicidal activity against STEME in % (Stellaria media [2]): 100%
Post-emergence herbicidal activity against ALOMY in % (Alopecurus myosuroides): 100%
Post-emergence herbicidal activity against SETVI in % (Setaria viridis [3]): 80%
Post-emergence herbicidal activity against PHBPU in % (Pharbitis purpurea): 90%
Post-emergence herbicidal activity against POLCO in % (Polygonum convolvulus): 80%
Post-emergence herbicidal activity against STEME in % (Stellaria media [4]): 100%
Post-emergence herbicidal activity against VERPE in % (Veronica persica): 90%
Post-emergence herbicidal activity against HORMU in % (Hordeum murinum): 100%

CC(C)OC(=O)[C@H]1C[C@@H](NC(=O)C2(C)CC(c3cccc(F)c3)=NO2)CO1 (mixture of isomers) [I-32, isopropyl cis-4-[[(5RS)-3-(3-fluorophenyl)-5-methyl-4H-isoxazole-5-carbonyl]amino]tetrahydrofuran-2-carboxylate]
pest or weed control at 80 g/ha (Setaria viridis [1]): 100%
pest or weed control at 80 g/ha (Stellaria media [2]): 90%
pest or weed control at 320 g/ha (Alopecurus myosuroides): 90%
pest or weed control at 320 g/ha (Setaria viridis [3]): 90%
pest or weed control at 320 g/ha (Pharbitis purpurea): 90%
pest or weed control at 320 g/ha (Polygonum convolvulus): 80%
pest or weed control at 320 g/ha (Stellaria media [4]): 90%
pest or weed control at 320 g/ha (Veronica persica): 80%
pest or weed control at 320 g/ha (Hordeum murinum): 90%

C=C[C@]1(C(=O)N[C@H]2CO[C@@H](C(=O)OC)C2)CC(c2cc(F)cc(F)c2)=NO1 (single isomer, unassigned) [I-12]
pest or weed control at 80 g/ha (Setaria viridis [1]): 100%
pest or weed control at 80 g/ha (Stellaria media [2]): 100%
Post-emergence herbicidal activity against ALOMY in % (Alopecurus myosuroides): 90%
Post-emergence herbicidal activity against SETVI in % (Setaria viridis [3]): 90%
Post-emergence herbicidal activity against PHBPU in % (Pharbitis purpurea): 90%
Post-emergence herbicidal activity against POLCO in % (Polygonum convolvulus): 90%
Post-emergence herbicidal activity against STEME in % (Stellaria media [4]): 90%
Post-emergence herbicidal activity against HORMU in % (Hordeum murinum): 90%

CC1(C(=O)NC2COC(C(=O)OCc3ccccc3)C2)CC(c2cc(F)cc(F)c2)=NO1 (mixture of isomers) [I-45]
Pre-emergence herbicidal activity against SETVI in % (Setaria viridis [1]): 100%
Pre-emergence herbicidal activity against STEME in % (Stellaria media [2]): 100%
Post-emergence herbicidal activity against ALOMY in % (Alopecurus myosuroides): 100%
Post-emergence herbicidal activity against SETVI in % (Setaria viridis [3]): 90%
Post-emergence herbicidal activity against PHBPU in % (Pharbitis purpurea): 90%
Post-emergence herbicidal activity against POLCO in % (Polygonum convolvulus): 80%
Post-emergence herbicidal activity against STEME in % (Stellaria media [4]): 90%
Post-emergence herbicidal activity against VERPE in % (Veronica persica): 80%
Post-emergence herbicidal activity against HORMU in % (Hordeum murinum): 100%

COC(=O)C1=C[C@@H](NC(=O)C2(C)CC(c3cccc(F)c3)=NO2)CO1 (stereo partly drawn) [I-46, methyl (3R)-3-[[3-(3-fluorophenyl)-5-methyl-4H-isoxazole-5-carbonyl]amino]-2,3-dihydrofuran-5-carboxylate]
pest or weed control at 80 g/ha (Setaria viridis [1]): 100%
pest or weed control at 80 g/ha (Stellaria media [2]): 100%
pest or weed control at 320 g/ha (Alopecurus myosuroides): 100%
pest or weed control at 320 g/ha (Setaria viridis [3]): 80%
pest or weed control at 320 g/ha (Pharbitis purpurea): 90%
pest or weed control at 320 g/ha (Polygonum convolvulus): 80%
pest or weed control at 320 g/ha (Stellaria media [4]): 90%
pest or weed control at 320 g/ha (Veronica persica): 80%
pest or weed control at 320 g/ha (Hordeum murinum): 100%

CC(C)OC(=O)C1CC(NC(=O)C2(C)CC(c3cc(F)cc(F)c3)=NO2)CO1 (stereo not shown) [I-44]
Pre-emergence herbicidal activity against SETVI in % (Setaria viridis [1]): 100%
Pre-emergence herbicidal activity against STEME in % (Stellaria media [2]): 90%
Post-emergence herbicidal activity against ALOMY in % (Alopecurus myosuroides): 100%
Post-emergence herbicidal activity against SETVI in % (Setaria viridis [3]): 90%
Post-emergence herbicidal activity against PHBPU in % (Pharbitis purpurea): 90%
Post-emergence herbicidal activity against POLCO in % (Polygonum convolvulus): 80%
Post-emergence herbicidal activity against STEME in % (Stellaria media [4]): 90%
Post-emergence herbicidal activity against VERPE in % (Veronica persica): 80%
Post-emergence herbicidal activity against HORMU in % (Hordeum murinum): 100%

C=C[C@]1(C(=O)N[C@H]2CO[C@@H](C(=O)OC)C2)CC(c2cc(F)cc(F)c2)=NO1 (single isomer, unassigned) [I-11]
Pre-emergence herbicidal activity against SETVI in % (Setaria viridis [1]): 100%
Pre-emergence herbicidal activity against STEME in % (Stellaria media [2]): 100%
pest or weed control at 320 g/ha (Alopecurus myosuroides): 90%
pest or weed control at 320 g/ha (Setaria viridis [3]): 90%
pest or weed control at 320 g/ha (Pharbitis purpurea): 90%
pest or weed control at 320 g/ha (Polygonum convolvulus): 90%
pest or weed control at 320 g/ha (Stellaria media [4]): 90%
pest or weed control at 320 g/ha (Hordeum murinum): 100%

CC1(C(=O)N[C@H]2CO[C@@H](C(=O)OCc3ccccc3)C2)CC(c2cccc(F)c2)=NO1 (mixture of isomers) [I-34, benzyl cis-4-[[(5RS)-3-(3-fluorophenyl)-5-methyl-4H-isoxazole-5-carbonyl]amino]tetrahydrofuran-2-carboxylate]
pest or weed control at 80 g/ha (Setaria viridis [1]): 90%
pest or weed control at 80 g/ha (Stellaria media [2]): 90%
pest or weed control at 320 g/ha (Alopecurus myosuroides): 100%
pest or weed control at 320 g/ha (Setaria viridis [3]): 90%
pest or weed control at 320 g/ha (Pharbitis purpurea): 90%
pest or weed control at 320 g/ha (Stellaria media [4]): 90%
pest or weed control at 320 g/ha (Veronica persica): 80%
pest or weed control at 320 g/ha (Hordeum murinum): 100%

C=C[C@]1(C(=O)N[C@H]2CO[C@@H](C(=O)OCC)C2)CC(c2cc(F)cc(F)c2)=NO1 (mixture of isomers) [I-35, ethyl cis-4-[[(5S)-3-(3,5-difluorophenyl)-5-vinyl-4H-isoxazole-5-carbonyl]amino]tetrahydrofuran-2-carboxylate]
pest or weed control at 80 g/ha (Setaria viridis [1]): 100%
pest or weed control at 80 g/ha (Stellaria media [2]): 100%
pest or weed control at 320 g/ha (Alopecurus myosuroides): 100%
pest or weed control at 320 g/ha (Setaria viridis [3]): 90%
pest or weed control at 320 g/ha (Pharbitis purpurea): 90%
pest or weed control at 320 g/ha (Stellaria media [4]): 90%
pest or weed control at 320 g/ha (Veronica persica): 80%
pest or weed control at 320 g/ha (Hordeum murinum): 100%
